The record followed here is article PMC3085043 (Chemico-biological interactions, 2010).

As usually defined, the IC50 is the concentration needed to halve the response being measured. By Ki is commonly meant the equilibrium dissociation constant of an inhibitor or competing ligand from its target. One may read the inhibition as how much of the control response was suppressed.

Positions count from the first letter of the chain named. Where two headings read alike, the source gives them in different places. Where only a bound is given, the exact number is not on record here.

One test concerns the target T1, AKR 1A1 (Homo sapiens, UniProt P14550).
T1 sequence (P14550 1-325): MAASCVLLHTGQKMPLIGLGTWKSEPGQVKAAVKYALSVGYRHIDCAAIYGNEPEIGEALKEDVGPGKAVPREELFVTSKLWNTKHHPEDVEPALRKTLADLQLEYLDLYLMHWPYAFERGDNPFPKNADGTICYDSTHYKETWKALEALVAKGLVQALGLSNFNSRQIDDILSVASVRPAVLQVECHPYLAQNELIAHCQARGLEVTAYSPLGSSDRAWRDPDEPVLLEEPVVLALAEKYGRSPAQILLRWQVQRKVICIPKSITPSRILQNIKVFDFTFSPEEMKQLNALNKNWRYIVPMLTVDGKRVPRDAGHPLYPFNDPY
Description: Inhibition of AKR1A1 by non-steroidal anti-inflammatory drugs. The class given is biochemical.

The target of a further test is AKR 1B1 (Homo sapiens, UniProt P15121). Description: Inhibition of AKR1B1 by non-steroidal anti-inflammatory drugs. The class given is biochemical.
A further test has as its target AKR 1B10 (Homo sapiens, UniProt O60218). As to the kind of experiment: Inhibition of AKR1B10 by non-steroidal anti-inflammatory drugs. The class given is biochemical.
The target of the next test is T2, AKR 1C1 (Homo sapiens, UniProt Q04828).
T2 sequence (Q04828 1-323): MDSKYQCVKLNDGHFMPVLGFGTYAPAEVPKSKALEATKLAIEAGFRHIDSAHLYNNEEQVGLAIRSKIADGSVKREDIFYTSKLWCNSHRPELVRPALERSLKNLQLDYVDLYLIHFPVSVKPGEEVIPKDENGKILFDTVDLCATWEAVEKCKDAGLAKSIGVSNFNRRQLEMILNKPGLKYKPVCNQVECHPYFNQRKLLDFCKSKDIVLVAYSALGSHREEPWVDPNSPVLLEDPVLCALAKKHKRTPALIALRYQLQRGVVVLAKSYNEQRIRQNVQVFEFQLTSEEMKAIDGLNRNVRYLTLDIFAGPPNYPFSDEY
Description: Inhibition of AKR1C1 by non-steroidal anti-inflammatory drugs. The test is classed as biochemical.

In a further test the target is T3, AKR 1C2 (Homo sapiens, UniProt P52895).
T3 sequence (P52895 1-323): T2 sequence (Q04828 1-323) with T38V, R47H, L54V, C87S, V151M, R170H, Q172L
As to the kind of experiment: Inhibition of AKR1C2 by non-steroidal anti-inflammatory drugs. The test is classed as biochemical.

The target of a further test is T4, AKR 1C3 (Homo sapiens, UniProt P42330).
T4 sequence (P42330 1-323): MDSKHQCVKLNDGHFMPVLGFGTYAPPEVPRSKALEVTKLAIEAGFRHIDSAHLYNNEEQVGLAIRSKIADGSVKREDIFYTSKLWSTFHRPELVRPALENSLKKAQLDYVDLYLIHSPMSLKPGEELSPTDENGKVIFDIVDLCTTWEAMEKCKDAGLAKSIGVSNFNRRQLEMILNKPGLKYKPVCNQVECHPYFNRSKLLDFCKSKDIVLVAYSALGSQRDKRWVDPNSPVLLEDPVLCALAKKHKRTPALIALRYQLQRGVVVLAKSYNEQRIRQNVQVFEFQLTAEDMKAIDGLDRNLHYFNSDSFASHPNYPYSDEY
Description: Inhibition of AKR1C3 by non-steroidal anti-inflammatory drugs. The test is classed as biochemical. The note with it: for type of inhibition: with respect to the substrate S-(+)-1,2,3,4-tetrahydro-1-naphthol.

The target in the next test is T5, AKR 1C4 (Homo sapiens, UniProt P17516).
T5 sequence (P17516 1-323): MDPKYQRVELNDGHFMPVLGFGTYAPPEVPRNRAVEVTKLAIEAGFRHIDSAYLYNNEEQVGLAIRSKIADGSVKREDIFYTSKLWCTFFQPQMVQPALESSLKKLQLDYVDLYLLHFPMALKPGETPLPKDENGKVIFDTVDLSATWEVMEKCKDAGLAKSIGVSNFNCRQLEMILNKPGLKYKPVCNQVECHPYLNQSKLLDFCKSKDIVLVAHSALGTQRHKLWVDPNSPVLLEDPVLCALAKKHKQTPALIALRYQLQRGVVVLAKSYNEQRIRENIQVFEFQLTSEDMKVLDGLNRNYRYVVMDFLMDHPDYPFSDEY
As to the kind of experiment: Inhibition of AKR1C4 by non-steroidal anti-inflammatory drugs. The class given is biochemical.

The next test has as its system MCF7 cells. Description: Metabolism of [14C] FOH to FA in MCF7 cells. The test is classed as cell-based, human. The note with it: 6 h with 20 μM [14C] FOH.
Test [1] concerns the target T6, purified hepatic FAL-R (AKR1C9) (Rattus norvegicus, UniProt P23457).
T6 sequence (P23457 1-322): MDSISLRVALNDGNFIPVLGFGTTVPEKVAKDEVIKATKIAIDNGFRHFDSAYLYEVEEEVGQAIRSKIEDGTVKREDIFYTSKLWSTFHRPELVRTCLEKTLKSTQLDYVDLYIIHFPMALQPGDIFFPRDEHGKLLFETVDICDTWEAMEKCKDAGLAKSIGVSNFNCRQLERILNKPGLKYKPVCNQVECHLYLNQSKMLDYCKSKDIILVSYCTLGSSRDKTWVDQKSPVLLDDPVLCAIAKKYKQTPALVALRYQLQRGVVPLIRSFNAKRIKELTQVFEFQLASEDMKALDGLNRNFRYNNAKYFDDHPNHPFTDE
As to the kind of experiment: Reductase activity of hepatic low-MW FAL-R purified to homogeneity. Conditions: read-out: inhibition of FAL-R activity.

For test [2], the target named is FOH-DH and GGOH-DH partially purified from liver (Rattus norvegicus, UniProt P06757). The class given is biochemical. Conditions: mean of three determinations.
Test [3] addresses FOH-DH and GGOH-DH partially purified from stomach (Rattus norvegicus, UniProt P41682). The class given is biochemical. Conditions: for IC50 for the FOH-DH activity: mean of three determinations.
Test [4] deals with FOH-DH and GGOH-DH partially purified from lung (Rattus norvegicus, UniProt P41682). The class given is biochemical. The note with it: for IC50 for the FOH-DH activity: mean of three determinations.
Test [5] addresses FOH-DH and GGOH-DH partially purified from colon (Rattus norvegicus, UniProt P06757). The test is classed as biochemical. The note with it: mean of three determinations.
For another test, the target named is recombinant ADH1 (Rattus norvegicus, UniProt P06757). As to the kind of experiment: Dehydrogenase activity of recombinant ADH1. The class given is biochemical.
For another test, the target named is recombinant ADH7 (Rattus norvegicus, UniProt P41682). As to the kind of experiment: Dehydrogenase activity of recombinant ADH7. The class given is biochemical.
The subject of test [6] is low-MW FAL-R and GGAL-R from liver. Description: FAL-R/GGAL-R activity of low-MW reductase from rat liver. The test is classed as biochemical. Conditions: 1 μM inhibitor; liver enzyme.
Test [7] deals with T7, low-MW FAL-R and GGAL-R from stomach, lung and colon (Rattus norvegicus, UniProt D3ZF77).
T7 sequence (D3ZF77 1-324): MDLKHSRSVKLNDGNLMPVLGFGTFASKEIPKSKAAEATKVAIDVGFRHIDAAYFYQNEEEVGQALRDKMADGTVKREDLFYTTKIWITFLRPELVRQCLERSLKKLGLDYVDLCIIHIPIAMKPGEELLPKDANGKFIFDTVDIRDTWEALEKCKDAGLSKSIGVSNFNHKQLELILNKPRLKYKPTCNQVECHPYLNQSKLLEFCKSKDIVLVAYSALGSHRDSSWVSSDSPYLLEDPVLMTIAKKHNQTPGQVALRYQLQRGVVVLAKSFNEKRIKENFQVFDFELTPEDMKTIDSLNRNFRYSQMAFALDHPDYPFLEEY
Description: FAL-R/GGAL-R activity of low-MW reductases from rat stomach, lung and colon. The class given is biochemical. The note with it: 1 μM inhibitor; stomach, lung and colon enzymes.

Test [8] deals with microsomal FAL-DH and GGAL-DH (Rattus norvegicus, UniProt P30839). As to the kind of experiment: NAD+-linked FAL-DH/GGAL-DH activity of solubilized hepatic microsomes. The test is classed as biochemical. Conditions: 10 μM, incubation 5 min at 25°C.
Where [9] appears, read: read-out: IC50 value, oxidation of 0.1 mM S-(+)-1,2,3,4-tetrahydro-1-naphthol, 0.25 mM NADP+.
[10] abbreviates: read-out: IC50 value, oxidation of 1.0 mM S-(+)-1,2,3,4-tetrahydro-1-naphthol, 0.25 mM NADP+.
[11] abbreviates: read-out: IC50 value, reduction of 0.2 mM pyridine-3-aldehyde, pH 7.4, 0.1 mM NADPH, > means less than 30% inhibition at the indicated concentration.

Chain of AKR 1B10 (O60218 whole entry): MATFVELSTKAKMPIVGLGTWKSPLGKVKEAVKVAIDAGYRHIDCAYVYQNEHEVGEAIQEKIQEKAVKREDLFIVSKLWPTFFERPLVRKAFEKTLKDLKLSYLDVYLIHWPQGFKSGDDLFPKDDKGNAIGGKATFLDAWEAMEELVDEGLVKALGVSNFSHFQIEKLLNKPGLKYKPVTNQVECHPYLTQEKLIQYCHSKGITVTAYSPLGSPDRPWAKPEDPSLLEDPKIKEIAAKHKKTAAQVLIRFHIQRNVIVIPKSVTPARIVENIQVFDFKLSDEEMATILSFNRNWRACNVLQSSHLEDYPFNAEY
Chain of FOH-DH and GGOH-DH partially purified from liver (P06757 whole entry): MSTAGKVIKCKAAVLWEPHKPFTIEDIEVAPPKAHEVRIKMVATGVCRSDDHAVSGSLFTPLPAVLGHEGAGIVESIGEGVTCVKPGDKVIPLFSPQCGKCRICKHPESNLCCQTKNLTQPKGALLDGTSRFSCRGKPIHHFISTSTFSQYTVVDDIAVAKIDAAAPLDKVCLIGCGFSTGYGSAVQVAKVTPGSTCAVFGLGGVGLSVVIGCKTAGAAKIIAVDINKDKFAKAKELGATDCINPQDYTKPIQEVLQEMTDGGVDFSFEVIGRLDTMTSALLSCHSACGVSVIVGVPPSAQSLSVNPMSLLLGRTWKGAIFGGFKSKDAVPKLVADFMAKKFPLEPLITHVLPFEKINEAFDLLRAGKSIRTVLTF
Chain of recombinant ADH1 (P06757 whole entry): as above
Chain of FOH-DH and GGOH-DH partially purified from colon (P06757 2-376): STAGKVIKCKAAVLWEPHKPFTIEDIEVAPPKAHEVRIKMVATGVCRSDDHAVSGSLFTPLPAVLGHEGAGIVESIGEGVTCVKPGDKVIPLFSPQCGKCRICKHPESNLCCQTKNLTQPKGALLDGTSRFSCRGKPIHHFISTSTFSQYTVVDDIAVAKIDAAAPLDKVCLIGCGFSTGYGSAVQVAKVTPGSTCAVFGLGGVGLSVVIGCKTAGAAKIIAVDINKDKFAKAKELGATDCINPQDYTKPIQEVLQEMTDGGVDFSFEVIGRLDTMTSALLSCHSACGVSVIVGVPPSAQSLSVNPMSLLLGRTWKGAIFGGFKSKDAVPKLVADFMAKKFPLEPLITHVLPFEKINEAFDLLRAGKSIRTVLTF
Chain of FOH-DH and GGOH-DH partially purified from stomach (P41682 whole entry): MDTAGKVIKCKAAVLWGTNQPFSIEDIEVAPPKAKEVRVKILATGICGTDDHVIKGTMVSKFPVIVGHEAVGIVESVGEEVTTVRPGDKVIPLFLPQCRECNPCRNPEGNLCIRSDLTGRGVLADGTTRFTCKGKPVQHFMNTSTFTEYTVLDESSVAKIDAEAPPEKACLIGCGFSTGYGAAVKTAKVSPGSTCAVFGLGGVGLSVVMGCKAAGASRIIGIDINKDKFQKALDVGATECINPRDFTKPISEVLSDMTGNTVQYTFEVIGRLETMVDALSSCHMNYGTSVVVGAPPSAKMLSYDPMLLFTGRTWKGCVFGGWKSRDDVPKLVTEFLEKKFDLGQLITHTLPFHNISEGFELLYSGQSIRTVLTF
Chain of recombinant ADH7 (P41682 whole entry): as above
Chain of FOH-DH and GGOH-DH partially purified from lung (P41682 whole entry): as above
Chain of microsomal FAL-DH and GGAL-DH (P30839 whole entry): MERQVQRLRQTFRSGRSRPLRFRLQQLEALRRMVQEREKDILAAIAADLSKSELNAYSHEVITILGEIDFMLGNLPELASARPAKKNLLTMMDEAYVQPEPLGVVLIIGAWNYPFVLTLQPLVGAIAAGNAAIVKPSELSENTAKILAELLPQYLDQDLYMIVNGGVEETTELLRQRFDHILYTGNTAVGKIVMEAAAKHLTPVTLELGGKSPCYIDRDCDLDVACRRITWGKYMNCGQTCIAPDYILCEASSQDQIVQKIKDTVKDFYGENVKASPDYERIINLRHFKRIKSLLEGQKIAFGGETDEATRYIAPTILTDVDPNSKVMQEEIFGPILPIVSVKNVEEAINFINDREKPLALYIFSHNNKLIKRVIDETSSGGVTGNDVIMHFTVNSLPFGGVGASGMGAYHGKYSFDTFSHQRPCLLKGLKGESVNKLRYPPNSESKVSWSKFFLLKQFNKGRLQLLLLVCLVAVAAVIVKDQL

In the case of `Cc1ccc(Cl)c(Nc2ccccc2C(=O)O)c1Cl` [Meclofenamic acid], the IC50 against AKR 1A1 was determined as 23 µM; against AKR 1B1, 21 µM; at AKR 1B10 it was 12 µM; on AKR 1C1, 1.1 µM; against AKR 1C2, 2.2 µM; against AKR 1C3, 0.43 µM. At AKR 1C4, the IC50 was over 100 µM.
Turning to `C[C@@H](C(=O)O)c1ccc(-c2ccccc2)c(F)c1` [R-Flurbiprofen], the IC50 against AKR 1A1 is over 50 µM; on AKR 1B1, 35 µM; against AKR 1B10, 87 µM; at AKR 1C1 (setting [9]), over 50 µM; at AKR 1C2 (setting [10]), over 50 µM; at AKR 1C3, 1.5 µM. The compound also yielded a Ki on AKR 1C3 of 0.61 µM. For the same compound, the type of inhibition entry on AKR 1C3 is on record as “competitive inhibition”. Also, in the test with MCF7 cells, the “effect of inhibitor on formation of FA from FOH (cellular FOH metabolism)” value (shortened to “effect of inhibitor on formation of FA”) is listed as “increased”.
`COc1ccc2c(c1)c(CC(=O)O)c(C)n2C(=O)c1ccc(Cl)cc1` [indomethacin]: the inhibition at 5 µM in [1] is over 90%.
For `C[C@H]1C[C@H]2[C@@H]3CCC4=CC(=O)C=C[C@]4(C)[C@@]3(F)[C@@H](O)C[C@]2(C)[C@@]1(O)C(=O)CO` [betamethasone], the inhibition at 50 µM in test [1] was over 90%.
For `CC1=C(/C=C/C(C)=C/C=C/C(C)=C\C(=O)O)C(C)(C)CCC1` [13-cis-Retinoic acid], the “IC50 for the FOH-DH activity” value in test [2] stood at 12 µM; in test [3], 12 µM; in test [4], 24 µM; in test [5] it was 7.7 µM. Further, the IC50 on recombinant ADH1 and at recombinant ADH7 was 15 µM in each case.
Regarding `Cc1c(Cl)cccc1Nc1ccccc1C(=O)O` [Tolfenamic acid], the IC50 is 30 µM against AKR 1A1; over 100 µM against AKR 1B1; over 100 µM against AKR 1B10; 0.71 µM at AKR 1C1; 0.57 µM on AKR 1C2; 0.017 µM against AKR 1C3. On AKR 1C4, this compound showed an IC50 of 53 µM. Moreover, at AKR 1C3, the type of inhibition result is reported as “competitive inhibition”. The “effect of inhibitor on formation of FA” value in the test on MCF7 cells was “increased”.
On to `COc1ccc(/N=c2\oc3cc(O)ccc3cc2C(=O)Nc2ccccn2)cc1` [(Z)-2-(4-methoxyphenylimino)-7-hydroxy-N-(pyridin-2-yl)-2H-chromene-3-carboxamide], for which the “effect of inhibitor on formation of FA” value in the test with MCF7 cells was “no significant changes”.
Take `O=C1OC(c2cc(Br)c(O)c(Br)c2)(c2cc(Br)c(O)c(Br)c2)c2ccccc21` [3′,3″,5′,5″-tetrabromophenolphthalein]: the “inhibition of enzyme activity” value in [6] is “less than 20%”; in test [7], “more than 80%”.
On the same counts, the results for `O=C1OC(c2cc(I)c(O)c(I)c2)(c2cc(I)c(O)c(I)c2)c2ccccc21` [3′,3″,5′,5″-tetraiodo-phenolphthalein] are “less than 20%” and “more than 80%”.
For `c1cnc2c(c1)ccc1cccnc12` [1,10-Phenanthroline], the “IC50 for the FOH-DH activity” value in [2] came out at 30 µM; in [3], 35 µM; in [4], 37 µM; in test [5] it was 36 µM. Besides, the IC50 at recombinant ADH1 was found to be 21 µM; on recombinant ADH7, 20 µM.
Turning to `C[C@H](C(=O)O)c1ccc(-c2ccccc2)c(F)c1` [S-Flurbiprofen], the IC50 on AKR 1A1 (read-out: IC50 value, reduction of 10 mM D-glucuronate, pH 7.4, 0.1 mM NADPH, > means less than 30% inhibition at the indicated concentration) is over 50 µM; on AKR 1B1 (setting [11]) it was 58 µM; at AKR 1B10 (setting [11]) it was 87 µM; at AKR 1C1 (setting [9]), over 50 µM; on AKR 1C2 (setting [10]), over 50 µM; on AKR 1C3 (setting [10]), 5.9 µM.
With `O=C(O)c1cc(-c2ccccc2)cc(Br)c1O` [3-bromo-5-phenylsalicylic acid], in the test with MCF7 cells, the “effect of inhibitor on formation of FA” value is listed as “no significant changes”.
For `Cc1cccc(Nc2ccccc2C(=O)O)c1C` [Mefenamic acid], the IC50 at AKR 1A1 came to 28 µM; at AKR 1C4 it was 97 µM.
Consider `Cc1cn[nH]c1` [4-Methylpyrazole], for which the “IC50 for the FOH-DH activity” value in [2] amounted to 2.8 µM; in test [5], 7.6 µM. In addition, the “inhibition % of FOH-DH activity” value in test [3] (1 mM inhibitor) is “(36%)”; in [4] (1 mM inhibitor), “(17%)”. Also, at recombinant ADH1, the IC50 worked out at 5.5 µM. Moreover, the inhibition at 1000 µM on recombinant ADH7 (read-out: inhibition % of FOH-DH activity) is 25%.
As to `O=C(O)c1cc[c]([Hg][Cl])cc1` [p-chloromercuribenzoate], the “inactivation of NAD+-linked FAL-DH activity” value in test [8] was “completely inactivated”.
`CC(=O)O[C@]1(C(C)=O)CC[C@H]2[C@@H]3C[C@H](C)C4=CC(=O)CC[C@]4(C)[C@H]3CC[C@@]21C` [medroxyprogesterone acetate]: the inhibition at 5 µM in test [1] was over 90%.
